Data reported in PubChem BioAssay (NCI).
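48-hour exposure; five concentrations; linearly interpolated endpoints. TGI: total growth inhibition.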

Columns and labels:
Assay in all cases: NCI-60 cell line screen, 48 h
NCI/ADR-RES ovarian = tested on: NCI/ADR-RES ovarian
M14 melanoma = tested on: M14 melanoma
RXF 393 renal = tested on: RXF 393 renal
SW-620 colon = tested on: SW-620 colon
T-47D breast = tested on: T-47D breast
A549 NSCLC = tested on: A549 NSCLC
EKVX NSCLC = tested on: EKVX NSCLC
U251 CNS = tested on: U251 CNS
SF-268 CNS = tested on: SF-268 CNS
HOP-62 NSCLC = tested on: HOP-62 NSCLC
RPMI-8226 leukemia = tested on: RPMI-8226 leukemia
BT-549 breast = tested on: BT-549 breast
UACC-62 melanoma = tested on: UACC-62 melanoma
MDA-MB-435 = tested on: MDA-MB-435
DU-145 prostate = tested on: DU-145 prostate
HT29 colon = tested on: HT29 colon
UACC-257 melanoma = tested on: UACC-257 melanoma
TK-10 renal = tested on: TK-10 renal
LOX IMVI melanoma = tested on: LOX IMVI melanoma
ACHN renal = tested on: ACHN renal
KM12 colon = tested on: KM12 colon
HCC-2998 colon = tested on: HCC-2998 colon
NCI-H23 lung = tested on: NCI-H23 lung
SK-MEL-28 melanoma = tested on: SK-MEL-28 melanoma
SN12C renal = tested on: SN12C renal
OVCAR-5 ovarian = tested on: OVCAR-5 ovarian
OVCAR-8 ovarian = tested on: OVCAR-8 ovarian
CCRF-CEM leukemia = tested on: CCRF-CEM leukemia
HOP-92 NSCLC = tested on: HOP-92 NSCLC
A498 renal = tested on: A498 renal
MDA-N = tested on: MDA-N
HCT-15 colon = tested on: HCT-15 colon
MCF7 breast = tested on: MCF7 breast
COLO 205 colon = tested on: COLO 205 colon
SK-OV-3 ovarian = tested on: SK-OV-3 ovarian
NCI-H226 lung = tested on: NCI-H226 lung
HCT-116 colon = tested on: HCT-116 colon
PC-3 prostate = tested on: PC-3 prostate
SNB-75 CNS = tested on: SNB-75 CNS
SK-MEL-2 melanoma = tested on: SK-MEL-2 melanoma
786-0 renal = tested on: 786-0 renal
SF-295 CNS = tested on: SF-295 CNS
SK-MEL-5 melanoma = tested on: SK-MEL-5 melanoma
IGROV1 ovarian = tested on: IGROV1 ovarian
CAKI-1 renal = tested on: CAKI-1 renal
K-562 leukemia = tested on: K-562 leukemia
SF-539 CNS = tested on: SF-539 CNS
MALME-3M melanoma = tested on: MALME-3M melanoma
MOLT-4 leukemia = tested on: MOLT-4 leukemia
MDA-MB-231 breast = tested on: MDA-MB-231 breast
OVCAR-3 ovarian = tested on: OVCAR-3 ovarian

O=C1C2=Cc3ccccc3OC2(O)Oc2ccc(O)cc21 (stereo unspecified)
TGI (NCI/ADR-RES ovarian): > 100 µM | TGI (M14 melanoma): > 100 µM | TGI (RXF 393 renal): > 100 µM | TGI (SW-620 colon): > 100 µM | TGI (T-47D breast): > 100 µM | TGI (A549 NSCLC): > 100 µM | TGI (EKVX NSCLC): > 100 µM | TGI (U251 CNS): > 100 µM | TGI (SF-268 CNS): > 100 µM | TGI (HOP-62 NSCLC): > 100 µM | TGI (RPMI-8226 leukemia): > 100 µM | TGI (BT-549 breast): > 100 µM | TGI (UACC-62 melanoma): > 100 µM | TGI (MDA-MB-435): > 100 µM | TGI (DU-145 prostate): > 100 µM | TGI (HT29 colon): > 100 µM | TGI (UACC-257 melanoma): > 100 µM | TGI (TK-10 renal): > 100 µM | TGI (LOX IMVI melanoma): > 100 µM | TGI (ACHN renal): 29.6 µM | TGI (KM12 colon): > 100 µM | TGI (HCC-2998 colon): > 100 µM | TGI (NCI-H23 lung): > 100 µM | TGI (SK-MEL-28 melanoma): > 100 µM | TGI (SN12C renal): > 100 µM | TGI (OVCAR-5 ovarian): > 100 µM | TGI (OVCAR-8 ovarian): > 100 µM | TGI (CCRF-CEM leukemia): 44.4 µM | TGI (HOP-92 NSCLC): > 100 µM | TGI (A498 renal): > 100 µM | TGI (MDA-N): > 100 µM | TGI (HCT-15 colon): > 100 µM | TGI (MCF7 breast): > 100 µM | TGI (COLO 205 colon): > 100 µM | TGI (SK-OV-3 ovarian): > 100 µM | TGI (NCI-H226 lung): > 100 µM | TGI (HCT-116 colon): > 100 µM | TGI (PC-3 prostate): > 100 µM | TGI (SNB-75 CNS): > 100 µM | TGI (SK-MEL-2 melanoma): > 100 µM | TGI (786-0 renal): > 100 µM | TGI (SF-295 CNS): > 100 µM | TGI (SK-MEL-5 melanoma): > 100 µM | TGI (IGROV1 ovarian): > 100 µM | TGI (CAKI-1 renal): > 100 µM | TGI (K-562 leukemia): 74.1 µM | TGI (SF-539 CNS): > 100 µM | TGI (MALME-3M melanoma): > 100 µM | TGI (MOLT-4 leukemia): > 100 µM | TGI (MDA-MB-231 breast): > 100 µM | TGI (OVCAR-3 ovarian): > 100 µM
